Source: patent US20230092890A1, “1, 3, 4-Oxadiazole derivative compounds as histone deacetylase 6 inhibitor, and the pharmaceutical composition comprising the same” (Chong Kun Dang Pharmaceutical Corp., priority 2019, published 2023)

How the values were obtained:
HDAC6 human recombinant = molecular target: T1, HDAC6 human recombinant (Homo sapiens, UniProt Q9UBN7); assay: HDAC enzyme activity inhibition (in vitro), HDAC6 assay; format: biochemical; conditions: samples at 0.1, 1, 10, 100 and 1000 nM; 37° C. 60 minutes; fluorescence Ex 390, Em 460; read-out: HDAC6 IC50
T1 construct: purchased Calbiochem 382180
T1 sequence (Q9UBN7 1-1215): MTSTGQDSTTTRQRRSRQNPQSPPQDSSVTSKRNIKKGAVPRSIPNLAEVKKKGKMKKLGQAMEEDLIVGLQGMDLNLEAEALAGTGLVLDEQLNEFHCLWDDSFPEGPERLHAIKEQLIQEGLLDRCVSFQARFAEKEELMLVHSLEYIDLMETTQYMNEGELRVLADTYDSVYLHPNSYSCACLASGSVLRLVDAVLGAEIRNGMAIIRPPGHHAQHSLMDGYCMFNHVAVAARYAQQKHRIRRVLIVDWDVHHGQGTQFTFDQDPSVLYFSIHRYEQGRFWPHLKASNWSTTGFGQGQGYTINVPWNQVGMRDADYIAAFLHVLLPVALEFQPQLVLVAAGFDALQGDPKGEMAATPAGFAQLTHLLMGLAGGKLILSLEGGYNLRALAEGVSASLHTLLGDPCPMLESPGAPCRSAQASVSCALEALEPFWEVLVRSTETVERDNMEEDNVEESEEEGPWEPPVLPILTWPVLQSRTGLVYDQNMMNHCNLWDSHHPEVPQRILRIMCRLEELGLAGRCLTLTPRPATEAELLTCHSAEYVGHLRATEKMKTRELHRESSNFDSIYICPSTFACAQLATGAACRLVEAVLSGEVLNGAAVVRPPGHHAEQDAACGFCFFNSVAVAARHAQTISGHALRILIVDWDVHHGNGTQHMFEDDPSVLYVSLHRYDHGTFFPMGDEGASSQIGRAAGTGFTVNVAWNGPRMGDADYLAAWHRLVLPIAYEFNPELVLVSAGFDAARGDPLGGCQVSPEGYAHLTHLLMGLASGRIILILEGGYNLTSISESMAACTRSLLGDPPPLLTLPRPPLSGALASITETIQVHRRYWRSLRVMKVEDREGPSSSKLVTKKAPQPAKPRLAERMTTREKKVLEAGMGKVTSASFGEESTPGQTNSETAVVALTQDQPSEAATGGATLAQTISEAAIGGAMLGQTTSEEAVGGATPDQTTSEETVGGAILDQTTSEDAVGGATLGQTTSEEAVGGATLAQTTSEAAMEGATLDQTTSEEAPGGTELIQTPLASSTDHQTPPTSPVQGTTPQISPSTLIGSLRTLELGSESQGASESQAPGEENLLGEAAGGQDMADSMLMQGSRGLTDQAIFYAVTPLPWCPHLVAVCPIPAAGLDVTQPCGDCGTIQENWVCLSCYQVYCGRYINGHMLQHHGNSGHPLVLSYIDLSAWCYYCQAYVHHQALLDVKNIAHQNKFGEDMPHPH
Method in brief: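 Fluorescence (Ex 390, Em 460) read after a 37° C, 60 min enzyme reaction and a further 30 min developer step at 37° C. Uses recombinant human HDAC6; HDAC1 arm dosed at 100, 1000, 10000 nM.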

HDAC1 = molecular target: T2, HDAC1 (Homo sapiens, UniProt Q13547); assay: HDAC enzyme activity inhibition (in vitro), HDAC1 Fluorimetric Drug Discovery Assay Kit; format: biochemical; conditions: samples at 100, 1000 and 10000 nM; 37° C. 60 minutes; fluorescence Ex 390, Em 460; read-out: HDAC1 IC50
T2 construct: purchased Enzolifesciences BML-AK511
Method in brief: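 Each sample reacted with enzyme for 60 min at 37° C before a 30-min developer step at the same temperature. HDAC1 doses spanned 100 to 10000 nM. Fluorescent signal was read at Ex 390/Em 460.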

T2 sequence (Q13547 whole entry): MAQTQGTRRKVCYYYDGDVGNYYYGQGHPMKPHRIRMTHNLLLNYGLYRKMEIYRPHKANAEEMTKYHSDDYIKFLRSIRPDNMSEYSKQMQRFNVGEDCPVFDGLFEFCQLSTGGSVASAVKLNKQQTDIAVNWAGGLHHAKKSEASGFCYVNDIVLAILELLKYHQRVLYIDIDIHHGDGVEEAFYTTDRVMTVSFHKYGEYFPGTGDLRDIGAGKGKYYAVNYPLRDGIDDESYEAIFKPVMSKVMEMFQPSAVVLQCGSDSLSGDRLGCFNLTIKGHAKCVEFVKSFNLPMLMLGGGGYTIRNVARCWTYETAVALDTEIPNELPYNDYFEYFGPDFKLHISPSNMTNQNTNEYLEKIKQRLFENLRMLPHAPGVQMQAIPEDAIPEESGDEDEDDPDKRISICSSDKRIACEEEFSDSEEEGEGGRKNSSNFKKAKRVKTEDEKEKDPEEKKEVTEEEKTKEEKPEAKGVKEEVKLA

| Compound | IC50 (HDAC6 human recombinant) [nM] | IC50 (HDAC1) [nM] |
| --- | --- | --- |
| CS(=O)(=O)N1CCC(n2c(=O)n(Cc3ccc(-c4nnc(C(F)F)o4)cn3)c3ccccc32)CC1 [Compound 206, 1-((5-(5-(difluoromethyl)-1,3,4-oxadiazole-2-yl)pyridine-2-yl)methyl)-3-(1-(methylsulfonyl)piperidine-4-yl)-1,3-dihydro-2H-benzo[d]imidazole-2-one] | 58 | > 10000 |
| CC(C)(C)C(=O)Nc1ccc2c(c1)n(Cc1ccccc1)c(=O)n2Cc1ccc(-c2nnc(C(F)F)o2)cn1 [Compound 207, N-(3-benzyl-1-((5-(5-(difluoromethyl)-1,3,4-oxadiazole-2-yl)pyridine-2-yl)methyl)-2-oxo-2,3-dihydro-1H-benzo[d]imidazole-5-yl)pivalamide] | 173 | > 10000 |
| Cn1c(=O)n(Cc2ccc(-c3nnc(C(F)F)o3)cn2)c2ccc(-c3cccnc3)cc21 [Compound 208, 1-((5-(5-(difluoromethyl)-1,3,4-oxadiazole-2-yl)pyridine-2-yl)methyl)-3-methyl-5-(pyridine-3-yl)-1,3-dihydro-2H-benzo[d]imidazole-2-one] | 13 | > 10000 |
| Cn1c(=O)n(Cc2ccc(-c3nnc(C(F)F)o3)cn2)c2ccc(-c3ccncc3)cc21 [Compound 209, 1-((5-(5-(difluoromethyl)-1,3,4-oxadiazole-2-yl)pyridine-2-yl)methyl)-3-methyl-5-(pyridine-4-yl)-1,3-dihydro-2H-benzo[d]imidazole-2-one] | 17 | > 10000 |
| Cc1noc(C)c1-c1ccc2c(c1)n(C1CCN(C)CC1)c(=O)n2Cc1ccc(-c2nnc(C(F)F)o2)cn1 [Compound 210, 1-((5-(5-(difluoromethyl)-1,3,4-oxadiazole-2-yl)pyridine-2-yl)methyl)-5-(3,5-dimethylisoxazole-4-yl)-3-(1-methylpiperidine-4-yl)-1,3-dihydro-2H-benzo[d]imidazole-2-one] | 38 | > 10000 |
| CN1CCC(n2c(=O)n(Cc3ccc(-c4nnc(C(F)F)o4)cn3)c3ccc(-c4cnoc4)cc32)CC1 [Compound 211, 1-((5-(5-(difluoromethyl)-1,3,4-oxadiazole-2-yl)pyridine-2-yl)methyl)-5-(isoxazole-4-yl)-3-(1-methylpiperidine-4-yl)-1,3-dihydro-2H-benzo[d]imidazole-2-one] | 48 | > 10000 |
| Cn1c(=O)n(Cc2ccc(-c3nnc(C(F)F)o3)cn2)c2ccc(-c3cccc4[nH]ccc34)cc21 [Compound 212, 1-((5-(5-(difluoromethyl)-1,3,4-oxadiazole-2-yl)pyridine-2-yl)methyl)-5-(1H-indole-4-yl)-3-methyl-1,3-dihydro-2H-benzo[d]imidazole-2-one] | 10 | > 10000 |
| CN1CCC(n2c(=O)n(Cc3ccc(-c4nnc(C(F)F)o4)cn3)c3cc(Cl)ccc32)CC1 [Compound 213, 5-chloro-3-((5-(5-(difluoromethyl)-1,3,4-oxadiazole-2-yl)pyridine-2-yl)methyl)-1-(1-methylpiperidine-4-yl)-1,3-dihydro-2H-benzo[d]imidazole-2-one] | 14 | > 10000 |
| CC(C)N1CCC(n2c(=O)n(Cc3ccc(-c4nnc(C(F)F)o4)cn3)c3cc(Cl)ccc32)CC1 [Compound 214, 5-chloro-3-((5-(5-(difluoromethyl)-1,3,4-oxadiazole-2-yl)pyridine-2-yl)methyl)-1-(1-isopropylpiperidine-4-yl)-1,3-dihydro-2H-benzo[d]imidazole-2-one] | 15 | > 10000 |
| CC(=O)N1CCC(n2c(=O)n(Cc3ccc(-c4nnc(C(F)F)o4)cn3)c3cc(Cl)ccc32)CC1 [Compound 215, 1-(1-acetylpiperidine-4-yl)-5-chloro-3-((5-(5-(difluoromethyl)-1,3,4-oxadiazole-2-yl)pyridine-2-yl)methyl)-1,3-dihydro-2H-benzo[d]imidazole-2-one] | 20 | > 10000 |
| CS(=O)(=O)N1CCC(n2c(=O)n(Cc3ccc(-c4nnc(C(F)F)o4)cn3)c3cc(Cl)ccc32)CC1 [Compound 216, 5-chloro-3-((5-(5-(difluoromethyl)-1,3,4-oxadiazole-2-yl)pyridine-2-yl)methyl)-1-(1-(methylsulfonyl)piperidine-4-yl)-1,3-dihydro-2H-benzo[d]imidazole-2-one] | 18 | > 10000 |

Results, then the compound that gave them:

| IC50 (HDAC6 human recombinant) [nM] | IC50 (HDAC1) [nM] | Compound |
| --- | --- | --- |
| 6 | > 10000 | CN1CCC(n2c(=O)n(Cc3ccc(-c4nnc(C(F)F)o4)cn3)c3cc(F)c(-c4cccc5[nH]ccc45)cc32)CC1 [Compound 217, 1-((5-(5-(difluoromethyl)-1,3,4-oxadiazole-2-yl)pyridine-2-yl)methyl)-6-fluoro-5-(1H-indole-4-yl)-3-(1-methylpiperidine-4-yl)-1,3-dihydro-2H-benzo[d]imidazole-2-one] |
| 44 | > 10000 | Cc1ccc(-c2ccc3c(c2)n(C)c(=O)n3Cc2ccc(-c3nnc(C(F)F)o3)cn2)o1 [Compound 218, 1-((5-(5-(difluoromethyl)-1,3,4-oxadiazole-2-yl)pyridine-2-yl)methyl)-3-methyl-5-(5-methylfuran-2-yl)-1,3-dihydro-2H-benzo[d]imidazole-2-one] |
| 33 | > 10000 | Cn1c(=O)n(Cc2ccc(-c3nnc(C(F)F)o3)cn2)c2ccc(-c3ccsc3)cc21 [Compound 219, 1-((5-(5-(difluoromethyl)-1,3,4-oxadiazole-2-yl)pyridine-2-yl)methyl)-3-methyl-5-(thiophene-3-yl)-1,3-dihydro-2H-benzo[d]imidazole-2-one] |
| 18 | > 10000 | Cn1c(=O)n(Cc2ccc(-c3nnc(C(F)F)o3)cn2)c2ccc(-c3ccc(S(C)(=O)=O)cc3)cc21 [Compound 220, 1-((5-(5-(difluoromethyl)-1,3,4-oxadiazole-2-yl)pyridine-2-yl)methyl)-3-methyl-5-(4-(methylsulfonyl)phenyl)-1,3-dihydro-2H-benzo[d]imidazole-2-one] |
| 8 | > 10000 | Cn1c(=O)n(Cc2ccc(-c3nnc(C(F)F)o3)cn2)c2ccc(-c3ccn[nH]3)cc21 [Compound 221, 1-((5-(5-(difluoromethyl)-1,3,4-oxadiazole-2-yl)pyridine-2-yl)methyl)-3-methyl-5-(1H-pyrazole-5-yl)-1,3-dihydro-2H-benzo[d]imidazole-2-one] |
| 21 | > 10000 | Cn1nccc1-c1ccc2c(c1)n(C)c(=O)n2Cc1ccc(-c2nnc(C(F)F)o2)cn1 [Compound 222, 1-((5-(5-(difluoromethyl)-1,3,4-oxadiazole-2-yl)pyridine-2-yl)methyl)-3-methyl-5-(1-methyl-1H-pyrazole-5-yl)-1,3-dihydro-2H-benzo[d]imidazole-2-one] |
| 16 | > 10000 | CN1CCC(n2c(=O)n(Cc3ccc(-c4nnc(C(F)F)o4)cn3)c3cc(F)c(-c4ccc(F)cc4F)cc32)CC1 [Compound 223, 1-((5-(5-(difluoromethyl)-1,3,4-oxadiazole-2-yl)pyridine-2-yl)methyl)-5-(2,4-difluorophenyl)-6-fluoro-3-(1-methylpiperidine-4-yl)-1,3-dihydro-2H-benzo[d]imidazole-2-one] |
| 8 | > 10000 | Cn1c(=O)n(Cc2ccc(-c3nnc(C(F)F)o3)cn2)c2cc(F)c(-c3cccc4[nH]ccc34)cc21 [Compound 224, 1-((5-(5-(difluoromethyl)-1,3,4-oxadiazole-2-yl)pyridine-2-yl)methyl)-6-fluoro-5-(1H-indole-4-yl)-3-methyl-1,3-dihydro-2H-benzo[d]imidazole-2-one] |
